# Tests used:
# [1] = test system: SAM in HCT116 human colon carcinoma cell line with MTAP gene deleted (MTAP −/−); assay: Cellular assay of target engagement (SAM), LC-MS/MS, 72 hrs; assay type: cell-based; conditions: HCT-116, IC50 bin with Max Inh., read-out: Cell 72 h SAM Inhibition (MTAP −/−)
# Protocol: Measurement of MAT2A activity in cells was made by direct quantitation of the abundance of the product of its enzymatic activity, SAM. Cancer cells were treated with candidate MAT2A inhibitors for a suitable incubation period, and the cells were then lysed using a reagent which quenched any further enzyme activity. Soluble metabolites including SAM were collected and SAM itself was directly measured from the lysate using quantitative LC-MS/MS.
# A typical assay was performed using an HCT116 human colon carcinoma cell line which was genetically engineered to delete the MTAP gene (commercially available from Horizon Discovery). This cell line was utilized because it was determined that loss of the MTAP gene predicts sensitivity to MAT2A inhibitors. Cells were plated in 96-well dishes at appropriate cell density. Following 24 hours, cells were then treated with the candidate MAT2A inhibitor. Prior to addition to cells, the compound was first serially diluted in 100% DMSO, typically as a 3-fold serial dilution starting at 500× top dose with 10 dose points including DMSO only control. Compound was then transferred to a working stock plate in cell culture media by adding 5 μL of compound in DMSO to 495 μL of cell culture media. This working stock was then added to cells via a further 5-fold dilution, by adding 25 μL of working stock to 100 μL of cells in culture media. Following compound addition, cells were incubated at 37° C./5% CO2 for 72 hrs.
# To quantitate SAM levels following compound treatment, cells were gently washed once in ammonium carbonate buffer (75 mM at pH 7.4), placed on dry ice, and lysed with metabolite extraction buffer (80% cold methanol and 20% water (v/v) with acetic acid at 1M final concentration with 200 ng/mL deuterated d3-SAM as internal control). Following centrifugation at 4° C. at 3,200 rpm for 30 minutes, the supernatant was collected and stored at −80° C. until analysis by Liquid Chromatography with tandem Mass Spectrometry (LC-MS/MS). LC-MS/MS analysis was performed using an API6500 Mass Spectrometer (Sciex, Framingham, Mass., USA) operating in positive ion spray mode and equipped with a Waters UPLC Acquity (Waters, Milford, Mass., USA) BEH Amide column. Multiple Reaction Monitoring data was acquired for SAM and the d3-SAM standard, using a mass transition pair at m/z 399.2→250.1 and 402.2→250.1, respectively. In a typical LC-MS/MS analysis, the initial flow rate was 0.5 ml/min of 25% mobile phase A (acetonitrile and water at 5:95 (v/v) with 1% formic acid and 10 mM ammonium acetate) and 75% mobile phase B (acetonitrile and water at 95:5 (v/v) with 1% formic acid and 10 mM ammonium acetate), 0.2-0.5 minutes with 75%-35% mobile phase B, 25%-65% mobile phase A, at 0.5 min 65% mobile phase A and 35% mobile phase B, 1.0-1.1 minutes with 35%-75% mobile phase B, 65%-25% mobile phase A, at 1.1 min 25% mobile phase A and 75% mobile phase B with a total run time of 1.5 minutes.
# Specific compounds disclosed herein were tested in the foregoing assay and they were determined to inhibit SAM with an IC50. See, Table 1 below.
# HCT116 MTAP−/− = assay: Inhibition of cellular proliferation, 4 days, Cell Titer Glo, HCT116 MTAP−/−; assay type: cell-based; conditions: Homo sapiens, HCT-116, 96 h, IC50 bin with Max Inh., read-out: 4 Day Relative Growth Inhibition (MTAP −/−)
# Protocol: (§1) Test compound impact on cancer cell growth was assessed by treating cancer cells with compound for 4 days and then measuring proliferation using an ATP-based cell proliferation readout (Cell Titer Glo, Promega Corporation).
# (§2) In a typical assay an isogenic pair of HCT116 human colon carcinoma cell lines which vary only in MTAP deletion status (HCT116 MTAP+/+ and HCT116 MTAP−/−) were plated in 96-well dishes at appropriate cell density. Following 24 hours, cells were then treated with the candidate MAT2A inhibitor. Prior to addition to cells, the compound was first serially diluted in 100% DMSO, typically as a 3-fold serial dilution starting at 500× top dose with 10 dose points including DMSO only control. Compound was then transferred to a working stock plate in cell culture media by adding 5 μL of compound in DMSO to 495 μL of cell culture media. This working stock was then added to cells via a further 5-fold dilution, by adding 25 μL of working stock to 100 μL of cells in culture media. Following compound addition, cells were incubated at 37° C./5% CO2 for 4 days.
# (§3) To measure inhibition of cellular proliferation, cells were allowed to equilibrate to room temperature for 30 minutes, and were then treated with 125 μL of Cell Titer Glo reagent. The plate was then covered with aluminum foil and shaken for 15 minutes to ensure complete mixing and full cell lysis. Luminescent signal was then measured using a plate-based luminometer Veritas version 1.9.2 using ATP standard curve to confirm assay reproducibility from run to run. This luminescence measure was converted to a proliferation index by subtracting from each data point the ATP luminescence signal measured from a bank (no cells) well and dividing by the ATP luminescence signal measured in 0.2% DMSO control well adjusted for signal in blank well. Compound activity was then represented as a percentage change in proliferation relative to a within-plate DMSO control against log 10 of compound concentration in molar (M) units.
# (§4) Specific compounds disclosed herein were tested in the foregoing assay and they were determined to inhibit cellular proliferation with an IC50. See, Table 1 below.
# HCT116 MTAP+/+ = assay: Inhibition of cellular proliferation, 4 days, Cell Titer Glo, HCT116 MTAP+/+; assay type: cell-based; conditions: Homo sapiens, HCT-116, 96 h, IC50 bin with Max Inh., read-out: 4 Day Relative Growth Inhibition (MTAP +/+)
# Protocol: as §1, §2, §3, §4
# MAT2A homodimer = biological target: T1, MAT2A homodimer (Homo sapiens, UniProt P31153); assay: MAT2A inhibition (biochemical, liberated phosphate, PiColorLock Gold); conditions: recombinant MAT2A homodimer; IC50 bin with Max Inh.; read-out: Enzyme Inhibition Bin
# T1 construct: inferred from Ni sepharose purification with imidazole elution; made in house; host or cells: Sf9 insect cells, baculovirus (Bac to Bac, pFASTBAC1)
# Protocol: Mat2A protein was expressed by recombinant baculovirus in SF9 infected cells using the Bac to Bac system cloned into the pFASTBAC1 vector (Invitrogen, Carlsbad, Calif.). Recombinant MAT2A was isolated from the cell lysate of 150 g of infected cells using HP Ni sepharose column chromatography. Recombinant MAT2A homodimer was eluted with 250 and 500 mM imidazole, and fractions containing MAT2A were identified by sodium dodecyl sulfate polyacrylamide gel electrophoresis and pooled.
# For determination of the inhibitory potency of compounds against the MAT2A homodimer, protein was diluted to 4 μg/mL in assay buffer (50 mM Tris, pH 8.0, 50 mM KCl, 15 mM MgCl2, 0.3 mM EDTA, 0.005% [w/v] bovine serum albumin [BSA]). Test compound was prepared in 100% dimethyl sulfoxide (DMSO) at 50× the desired final concentration. A 1 μL volume of compound dilution was added to 40 μL of enzyme dilution and the mixture was allowed to equilibrate for 60 minutes at 25° C. The enzymatic assay was initiated by the addition of 10 μL of substrate mix (500 μM ATP, pH 7.0, 400 μM L-methionine in 1× assay buffer), and the mixture was incubated for a further 60 minutes at 25° C. The reaction was halted and the liberated phosphate released by the enzyme in stoichiometric amounts by the production of S-adenosyl methionine (SAM) was measured using the PiColorLock Gold kit (Innova Biosciences, UK). Absolute product amounts were determined by comparison to a standard curve of potassium phosphate buffer, pH 8.0. The compounds were also tested in a secondary assay utilizing 1 μg/mL MAT2A and incubated for 5 hours at 25° C. before halting and processing as above.
# Specific compounds disclosed herein were tested in the foregoing assay and they were determined to inhibit MAT2A with an IC50. See, Table 1 below.
# T1 sequence (P31153 whole entry): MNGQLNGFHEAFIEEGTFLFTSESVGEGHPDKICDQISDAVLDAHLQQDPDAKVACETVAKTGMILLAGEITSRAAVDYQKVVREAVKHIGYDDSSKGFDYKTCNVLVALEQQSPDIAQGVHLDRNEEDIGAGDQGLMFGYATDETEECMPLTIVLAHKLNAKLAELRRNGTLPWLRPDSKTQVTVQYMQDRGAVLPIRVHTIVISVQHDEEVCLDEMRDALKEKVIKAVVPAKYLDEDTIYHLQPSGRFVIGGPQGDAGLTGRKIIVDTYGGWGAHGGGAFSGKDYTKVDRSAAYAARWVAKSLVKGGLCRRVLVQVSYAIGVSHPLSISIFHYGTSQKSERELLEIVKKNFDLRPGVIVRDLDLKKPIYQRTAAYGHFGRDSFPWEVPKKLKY
Structure (SMILES),IC50 [1],IC50 (HCT116 MTAP−/−),IC50 (HCT116 MTAP+/+),IC50 (MAT2A homodimer)
"Cn1cc2cc(-n3nc4c(C#N)cn(CC5CC5)c4c(-c4ccc([C@@H]5CC5(F)F)nc4)c3=O)ccc2n1 [Example 252, (S)-5-(cyclopropylmethyl)-4-(6-(2,2-difluorocyclopropyl)pyridin-3-yl)-2-(2-methyl-2H-indazol-5-yl)-3-oxo-3,5-dihydro-2H-pyrrolo[3,2-c]pyridazine-7-carbonitrile]",100 to 1000 nM,100 to 1000 nM,> 1000 nM,< 100 nM
"Cn1cc2cc(-n3nc4[nH]c(=O)n(CC5CC5)c4c(-c4ccc(Cl)cc4)c3=O)ccc2n1 [Example 205, 4-(4-chlorophenyl)-5-(cyclopropylmethyl)-2-(2-methyl-2H-indazol-5-yl)-2,7-dihydro-3H-imidazo[4,5-c]pyridazine-3,6(5H)-dione]",< 100 nM,100 to 1000 nM,> 1000 nM,< 100 nM
"CCc1ccc(-c2c(=O)n(-c3ccc4nn(C)cc4c3)nc3ccn(CC4CC4)c23)cn1 [Example 135, 5-(cyclopropylmethyl)-4-(6-ethylpyridin-3-yl)-2-(2-methyl-2H-indazol-5-yl)-2,5-dihydro-3H-pyrrolo[3,2-c]pyridazin-3-one]",< 100 nM,< 100 nM,100 to 1000 nM,< 100 nM
"Cn1cc2cc(-n3nc4c(c(-c5ccc(C6CC6)cc5)c3=O)n(CC3CC3)c(=O)n4C)ccc2n1 [Example 200, 5-(cyclopropylmethyl)-4-(4-cyclopropylphenyl)-7-methyl-2-(2-methyl-2H-indazol-5-yl)-2,7-dihydro-3H-imidazo[4,5-c]pyridazine-3,6(5H)-dione]",< 100 nM,< 100 nM,100 to 1000 nM,< 100 nM
"COc1ccc(-n2nc3ccn(CC4CC4)c3c(-c3ccc(OC(F)F)cc3)c2=O)cc1 [Example 229, 5-(cyclopropylmethyl)-4-(4-(difluoromethoxy)phenyl)-2-(4-methoxyphenyl)-2,5-dihydro-3H-pyrrolo[3,2-c]pyridazin-3-one]",< 100 nM,< 100 nM,100 to 1000 nM,< 100 nM
"Cn1cc2cc(-n3nc4c(S(N)(=O)=O)cn(CC5CC5)c4c(-c4ccc(OC(F)F)cc4)c3=O)ccc2n1 [Example 184, 5-(cyclopropylmethyl)-4-(4-(difluoromethoxy)phenyl)-2-(2-methyl-2H-indazol-5-yl)-3-oxo-3,5-dihydro-2H-pyrrolo[3,2-c]pyridazine-7-sulfonamide]",< 100 nM,100 to 1000 nM,> 1000 nM,< 100 nM
"Cn1cc2cc(-n3nc4nnn(CC5CC5)c4c(-c4ccc(C5CC5)nc4)c3=O)ccc2n1 [Example 210, 1-(cyclopropylmethyl)-7-(6-cyclopropylpyridin-3-yl)-5-(2-methyl-2H-indazol-5-yl)-1,5-dihydro-6H-[1,2,3]triazolo[4,5-c]pyridazin-6-one]",> 1000 nM,100 to 1000 nM,> 1000 nM,100 to 1000 nM
"CCc1ccc(-c2c(=O)n(-c3ccc4nc(C)n(C)c4c3)nc3ccn(CC4CC4)c23)cn1 [Example 142, 5-(cyclopropylmethyl)-2-(1,2-dimethyl-1H-benzo[d]imidazol-6-yl)-4-(6-ethylpyridin-3-yl)-2,5-dihydro-3H-pyrrolo[3,2-c]pyridazin-3-one]",< 100 nM,< 100 nM,> 1000 nM,< 100 nM
"[2H]C([2H])([2H])Oc1ccc(-c2c(=O)n(-c3ccc4nn(C)cc4c3)nc3c2n(CC2CC2)c(=O)n3C)cc1 [Example 201, 5-(cyclopropylmethyl)-4-(4-(methoxy-d3)phenyl)-7-methyl-2-(2-methyl-2H-indazol-5-yl)-2,7-dihydro-3H-imidazo[4,5-c]pyridazine-3,6(5H)-dione]",< 100 nM,< 100 nM,100 to 1000 nM,< 100 nM
"Cn1cc2cc(-n3nc4c(C(N)=O)cn(CC5CC5)c4c(-c4ccc(Cl)cc4)c3=O)ccc2n1 [Example 170, 4-(4-chlorophenyl)-5-(cyclopropylmethyl)-2-(2-methyl-2H-indazol-5-yl)-3-oxo-3,5-dihydro-2H-pyrrolo[3,2-c]pyridazine-7-carboxamide]",< 100 nM,< 100 nM,> 1000 nM,< 100 nM
"Cc1ccc(-c2c(=O)n(-c3ccc4nn(C)cc4c3)nc3ccn(CC4CC4)c23)cn1 [Example 103, 5-(cyclopropylmethyl)-2-(2-methyl-2H-indazol-5-yl)-4-(6-methylpyridin-3-yl)-2,5-dihydro-3H-pyrrolo[3,2-c]pyridazin-3-one]",< 100 nM,< 100 nM,100 to 1000 nM,< 100 nM
"[2H]C([2H])([2H])Oc1ccc(-n2nc3ccn(CC4CC4)c3c(-c3ccc(C)nc3)c2=O)cc1 [Example 134, 5-(cyclopropylmethyl)-2-(4-(methoxy-d3)phenyl)-4-(6-methylpyridin-3-yl)-2,5-dihydro-3H-pyrrolo[3,2-c]pyridazin-3-one]",< 100 nM,100 to 1000 nM,> 1000 nM,< 100 nM

# Source: patent US20220169654A1, “New Organic Compounds” (Servier Pharmaceuticals LLC, priority 2020, published 2022)
